Test results published in patent publication US20090093476A1, “PYRROLO[1,2-A]QUINOXALINE DERIVATIVES AS ADENOSINE A3 RECEPTOR MODULATORS AND USES THEREOF” (FAUST PHARMACEUTICALS, priority 2005, published 2009).

Experiments:
Format in all cases: cell-based
HT-29 = assay: Cytotoxic activity, MTS assay, HT-29; settings: Homo sapiens, HT-29, 96 hours
Protocol: (§1) This study aims to determine the cytotoxic activity of a compound of the invention against a panel of ten human cancer cell lines.
(§2) Paclitaxel (Taxol®, ref. T1912, Sigma) is used as positive control.
(§3) Human tumor cells were plated at 5,000 to 10,000 cells per well, with 24 h incubation time before treatment. Tumor cell lines were incubated for 96 hours with 10 concentrations, in ¼ dilution steps, of compound of the invention (from 3.8×10^−10 to 1.0×10^−4 M) and Paclitaxel (from 3.8×10^−13 to 1.0×10^−7 M). Experiments were repeated three times, each concentration being issued from quadruplicate. Control cells were treated with corresponding vehicle alone. At the end of the treatments, the cytotoxic activity was evaluated by a MTS assay (Baltrop J A et al, Bioorg. Med. Chem. Lett. 1991, 611-4).

HL-60 = assay: Cytotoxic activity, MTS assay, HL-60; settings: Homo sapiens, HL-60, 96 hours
Protocol: as §1, §2, §3

U-87 MG = assay: Cytotoxic activity, MTS assay, U-87 MG; settings: Homo sapiens, 96 hours
Protocol: as §1, §2, §3

A375 = assay: Cytotoxic activity, MTS assay, A375; settings: Homo sapiens, A-375, A375, 96 hours
Protocol: as §1, §2, §3

A2780 = assay: Cytotoxic activity, MTS assay, A2780; settings: Homo sapiens, A2780, 96 hours
Protocol: as §1, §2, §3

PANC-1 = assay: Cytotoxic activity, MTS assay, PANC-1; settings: Homo sapiens, PANC-1, 96 hours
Protocol: as §1, §2, §3

U-937 = assay: Cytotoxic activity, MTS assay, U-937; settings: Homo sapiens, U-937, 96 hours
Protocol: as §1, §2, §3

HCT 116 = assay: Cytotoxic activity, MTS assay, HCT 116; settings: Homo sapiens, HCT 116, 96 hours
Protocol: as §1, §2, §3

PC-3 = assay: Cytotoxic activity, MTS assay, PC-3; settings: Homo sapiens, PC-3, 96 hours
Protocol: as §1, §2, §3

K-562 = assay: Cytotoxic activity, MTS assay, K-562; settings: Homo sapiens, K562, K-562, 96 hours
Protocol: as §1, §2, §3

Molecule `CC(=O)O[C@H]1C(=O)[C@@]2(C)[C@H]([C@H](OC(=O)c3ccccc3)[C@]3(O)C[C@H](OC(=O)[C@H](O)[C@@H](NC(=O)c4ccccc4)c4ccccc4)C(C)=C1C3(C)C)[C@]1(OC(C)=O)CO[C@@H]1C[C@@H]2O` [Paclitaxel] has an IC50 (HT-29) of 8.29 nM, an IC50 (HL-60) of 6.65 nM and an IC50 (U-87 MG) of over 100 nM. It also gave an IC50 (A375) of 6.52 nM, an IC50 (A2780) of 77 nM and an IC50 (PANC-1) of over 100 nM. The IC50 (U-937) was 5.29 nM, the IC50 (HCT 116) was 5.57 nM and the IC50 (PC-3) was 8.8 nM. The IC50 (K-562) was 7.6 nM.
